Data on three molecules can be found in patent publication US7148231B2, “[6,7-Bis(2-methoxy-ethoxy)-quinazolin-4-yl]-(3-ethynyl-phenyl)amine hydrochloride polymorph” (Hoffmann-La Roche Inc., priority 2003, dated 2006).

For series [1] the following is noted: polymorphs described in WO 01/34574; cited from earlier work.
Series [2] can be described thus: Solubility after 20 min equilibration at 20° C. The following applies: hydrochloride; for solubility in aqueous buffer (pH 1): aqueous buffer solution pH 1, 20 min equilibration at 20° C.; for solubility in water: 20 min equilibration at 20° C. The series is classed as physicochemical. Here is the method: The solubility of polymorphs A, B, and E measured after 20 min equilibration at 20° C. in either water or aqueous buffer solution (pH 1) are compiled the following table.: […]

The conditions of series [3]: polymorphs described in WO 01/34574; cited from earlier work. The source holds these as a separate data set.
Series [4] is described as follows: Thermodynamic stability (melting point, heat of solution, equilibration experiments in suspension). The class given is physicochemical. The following applies: comparison of polymorphs E, A and B; hydrochloride. The procedure:
The thermodynamic stability of the individual crystalline polymorphs E, A and B of [6,7-Bis(2-methoxy-ethoxy)-quinazolin-4-yl]-(3-ethynyl-phenyl)amine hydrochloride were measured according to methods known in the art, e.g., from Byrn (Byrn, S. R., Pfeiffer, R. R., Stowell, J. G., “Solid-State Chemistry of Drugs”, SSCI Inc., West Lafayette, Ind., 1999).

For series [5] the following is noted: polymorphs described in WO 01/34574; cited from earlier work. The source holds these as a separate data set.
The next series in a line: Dissolution rate. The class given is physicochemical. The settings on record: compared with polymorph B.

Molecules are shown by their SMILES. Where two headings read alike, the source gives them in different places.

On to `C#Cc1cccc(Nc2ncnc3cc(OCCOC)c(OCCOC)cc23)c1.Cl` [polymorph A, [6,7-Bis(2-methoxy-ethoxy)-quinazolin-4-yl]-(3-ethynyl-phenyl)amine hydrochloride], for which the dissolution rate entry in series [1] is “better solubility and dissolution rate than polymorph B”. Besides, in series [2], the “solubility in aqueous buffer (pH 1)” value is 0.017% and the solubility in water stood at 0.194%. In series [3], the solubility result was “better solubility and dissolution rate than polymorph B”.
As to `C#Cc1cccc(Nc2ncnc3cc(OCCOC)c(OCCOC)cc23)c1.Cl` [polymorph B, [6,7-Bis(2-methoxy-ethoxy)-quinazolin-4-yl]-(3-ethynyl-phenyl)amine hydrochloride], in series [4], the thermodynamic stability result is “more stable than polymorphs E and A”. In addition, in series [2], the “solubility in aqueous buffer (pH 1)” value is reported as 0.003% and the solubility in water worked out at 0.098%. In series [5], the thermodynamic stability result is listed as “thermodynamically more stable than polymorph A”.
For the molecule `C#Cc1cccc(Nc2ncnc3cc(OCCOC)c(OCCOC)cc23)c1.Cl` [polymorph E, [6,7-Bis(2-methoxy-ethoxy)-quinazolin-4-yl]-(3-ethynyl-phenyl)amine hydrochloride], the thermodynamic stability result in series [4] was “thermodynamically more stable than polymorph A”. Besides, in series [2], the “solubility in aqueous buffer (pH 1)” value amounted to 0.011% and the solubility in water was found to be 0.191%. The dissolution rate entry in “Dissolution rate” was “better solubility and dissolution rate than the known polymorph B”.
